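Cultured in 96-well plates, cells were exposed to test compound for 48 hours across five concentrations. At the GI50, growth is halved. At the TGI there is no net growth.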
Legend:
Test in all cases: DTP human tumour cell line panel, 48 h
A549 NSCLC = test system: A549 NSCLC
RXF 393 renal = test system: RXF 393 renal
NCI-H522 lung = test system: NCI-H522 lung
HCT-15 colon = test system: HCT-15 colon
HCT-116 colon = test system: HCT-116 colon
A498 renal = test system: A498 renal
LOX IMVI melanoma = test system: LOX IMVI melanoma
OVCAR-5 ovarian = test system: OVCAR-5 ovarian
SF-268 CNS = test system: SF-268 CNS
M14 melanoma = test system: M14 melanoma
T-47D breast = test system: T-47D breast
PC-3 prostate = test system: PC-3 prostate
OVCAR-4 ovarian = test system: OVCAR-4 ovarian
COLO 205 colon = test system: COLO 205 colon
SK-OV-3 ovarian = test system: SK-OV-3 ovarian
UACC-62 melanoma = test system: UACC-62 melanoma
786-0 renal = test system: 786-0 renal
UACC-257 melanoma = test system: UACC-257 melanoma
SNB-75 CNS = test system: SNB-75 CNS
KM12 colon = test system: KM12 colon
OVCAR-3 ovarian = test system: OVCAR-3 ovarian
SNB-19 CNS = test system: SNB-19 CNS
HT29 colon = test system: HT29 colon
NCI/ADR-RES ovarian = test system: NCI/ADR-RES ovarian
HOP-92 NSCLC = test system: HOP-92 NSCLC
BT-549 breast = test system: BT-549 breast
MCF7 breast = test system: MCF7 breast
NCI-H226 lung = test system: NCI-H226 lung
UO-31 renal = test system: UO-31 renal

O=C(CI)Nc1ccc(O)c2ccccc12
TGI (A549 NSCLC): 13700 nM | GI50 (RXF 393 renal): 742 nM | TGI (RXF 393 renal): 1970 nM | GI50 (NCI-H522 lung): 142 nM | TGI (NCI-H522 lung): 297 nM | GI50 (HCT-15 colon): 817 nM | TGI (HCT-15 colon): 2480 nM | GI50 (HCT-116 colon): 481 nM | TGI (HCT-116 colon): 1160 nM | GI50 (A498 renal): 2370 nM | TGI (A498 renal): 9120 nM | GI50 (LOX IMVI melanoma): 1280 nM | TGI (LOX IMVI melanoma): 2680 nM | GI50 (OVCAR-5 ovarian): 1850 nM | TGI (OVCAR-5 ovarian): 3550 nM | GI50 (SF-268 CNS): 2030 nM | TGI (SF-268 CNS): 5560 nM | GI50 (M14 melanoma): 1060 nM | TGI (M14 melanoma): 2630 nM | GI50 (T-47D breast): 1700 nM | TGI (T-47D breast): 4270 nM | GI50 (PC-3 prostate): 2380 nM | TGI (PC-3 prostate): 9690 nM | GI50 (OVCAR-4 ovarian): 575 nM | TGI (OVCAR-4 ovarian): 1230 nM | GI50 (COLO 205 colon): 379 nM | TGI (COLO 205 colon): 956 nM | GI50 (SK-OV-3 ovarian): 4270 nM | TGI (SK-OV-3 ovarian): 14800 nM | GI50 (UACC-62 melanoma): 1670 nM | TGI (UACC-62 melanoma): 3440 nM | GI50 (786-0 renal): 1730 nM | TGI (786-0 renal): 3270 nM | GI50 (UACC-257 melanoma): 1540 nM | TGI (UACC-257 melanoma): 3140 nM | GI50 (SNB-75 CNS): 1610 nM | TGI (SNB-75 CNS): 4980 nM | GI50 (KM12 colon): 1900 nM | TGI (KM12 colon): 3690 nM | GI50 (OVCAR-3 ovarian): 857 nM | TGI (OVCAR-3 ovarian): 2230 nM | GI50 (SNB-19 CNS): 3390 nM | TGI (SNB-19 CNS): 11700 nM | GI50 (HT29 colon): 504 nM | TGI (HT29 colon): 2800 nM | GI50 (NCI/ADR-RES ovarian): 2970 nM | TGI (NCI/ADR-RES ovarian): 14800 nM | GI50 (HOP-92 NSCLC): 1610 nM | TGI (HOP-92 NSCLC): 3390 nM | GI50 (BT-549 breast): 2280 nM | TGI (BT-549 breast): 6250 nM | GI50 (MCF7 breast): 766 nM | TGI (MCF7 breast): 2350 nM | GI50 (NCI-H226 lung): 1670 nM | TGI (NCI-H226 lung): 5610 nM | GI50 (UO-31 renal): 647 nM | TGI (UO-31 renal): 2010 nM
